Assay results reported in patent publication US20250144067A1, “PERSONALIZED STARVATION THERAPY FOR CANCER” (Faeth Therapeutics, Inc., priority 2021, published 2025).
Counter-ions that a name gives are not always drawn. Like-named read-outs stand apart in the source and are kept apart here.

Assays:
[1] = system: NCI-H292 lung cancer cells; assay: FDA drug screening, complete media vs cholesterol-free media without statin (TABLE 1); assay type: cell-based, human
[2] = system: NCI-H292 lung cancer cells; assay: FDA drug screening, complete media vs cholesterol-free media with simvastatin (TABLE 2); assay type: cell-based, human
[3] = NCI-H292 cells, cholesterol-free media without statin
[4] = complete vs cholesterol-free media, greater than 0 enhanced anti-cancer activity, about 0 neutral, below 0 antagonists
[5] = NCI-H292 cells, FDA library drug in cholesterol-free media with simvastatin 0.04 μM
[6] = NCI-H292 cells, FDA library drug in complete media
[7] = complete media vs cholesterol-free media + simvastatin (0.04 μM), >0 enhanced anti-cancer activity, about 0 neutral, <0 antagonist
[8] = NCI-H292 cells, cholesterol-free media without statin, FDA drug library screen
[9] = NCI-H292 cells, complete media, FDA drug library screen
[10] = complete vs cholesterol-free media, >0 enhanced anti-cancer activity, about 0 neutral, <0 antagonist
[11] = NCI-H292 cells, cholesterol-free media with simvastatin 0.04 μM, cell growth value in FDA drug screen
[12] = NCI-H292 cells, complete media, cell growth value in FDA drug screen
[13] = complete media minus cholesterol-free media + simvastatin, >0 enhanced anti-cancer activity, about 0 neutral, <0 antagonist
[14] = Complete minus Cholesterol-free, […]
[15] = NCI-H292 cells, cholesterol-free media with simvastatin 0.04 μM, FDA drug library screen (TABLE 2)
[16] = NCI-H292 cells, complete media, FDA drug library screen (TABLE 2)
[17] = NCI-H292 cells, drug in cholesterol-free media with simvastatin 0.04 μM
[18] = NCI-H292 cells, drug in complete media
[19] = complete media vs cholesterol-free media + simvastatin (0.04 μM), […]
[20] = Complete minus Cholesterol-free, >0 enhanced anti-cancer activity, about 0 neutral, <0 antagonist
[21] = NCI-H292 cells, FDA drug library screen, cholesterol-free media without statin
[22] = NCI-H292 cells, FDA drug library screen, complete media
[23] = NCI-H292 cells, FDA drug library screen, cholesterol-free media with simvastatin 0.04 μM
[24] = complete media minus cholesterol-free media + simvastatin (0.04 μM), >0 enhanced anti-cancer activity, about 0 neutral, <0 antagonist

`CCCCN(CCCC)CCC(O)c1cc2c(Cl)cc(Cl)cc2c2cc(C(F)(F)F)ccc12` (centres unmarked) [Halofantrine hydrochloride] showed a Cholesterol-free [1, 3] of 1.176, a Complete ([1]; NCI-H292 cells, complete media) of 0.7446 and a Difference [1, 4] of −0.43. For the same molecule, the “Cholesterol-free media + simvastatin (0.04 μM)” value [2, 5] was 1.233, the “Complete Media” value [2, 6] was 0.9282 and the Difference [2, 7] was −0.30.
`O=C(CCCN1CCC(O)(c2ccc(Cl)cc2)CC1)c1ccc(F)cc1` [Haloperidol] showed a Cholesterol-free [1, 8] of 0.4782, a Complete [1, 9] of 0.7598 and a Difference [1, 10] of 0.28. For the same molecule, the “Cholesterol-free media + simvastatin (0.04 μM)” value [2, 11] was 0.8115, the “Complete Media” value [2, 12] was 0.843 and the Difference [2, 13] was 0.03.
For `COC(=O)C[C@](O)(CCC(C)(C)O)C(=O)O[C@@H]1C(OC)=C[C@]23CCCN2CCc2cc4c(cc2[C@H]13)OCO4` [Harringtonine], the Difference [1, 14] was −0.01, the Cholesterol-free [1, 8] was 0.0181 and the Complete [1, 9] was 0.006818. The “Cholesterol-free media + simvastatin (0.04 μM)” value [2, 15] was −0.01111, the “Complete Media” value [2, 16] was −0.002434 and the Difference ([2]; complete media minus cholesterol-free media + simvastatin (0.04 μM), […]) was 0.01.
`O=Cc1ccc(O[C@@H]2O[C@H](CO)[C@@H](O)[C@@H](O)[C@H]2O)cc1` [Helicid] gave a Difference [1, 14] of −0.20, a Cholesterol-free [1, 3] of 1.202 and a Complete ([1]; NCI-H292 cells, complete media) of 1.003. For the same molecule, the “Cholesterol-free media + simvastatin (0.04 μM)” value [2, 17] was 1.093, the “Complete Media” value [2, 18] was 0.9239 and the Difference [2, 19] was −0.17.
With `CC(N)CCCC(C)(C)O` (centres unmarked) [Heptaminol (hydrochloride)] the Difference [1, 20] was −0.27, the Cholesterol-free [1, 3] was 0.8584 and the Complete ([1]; NCI-H292 cells, complete media) was 0.5894. The “Cholesterol-free media + simvastatin (0.04 μM)” value [2, 17] was 1.069, the “Complete Media” value [2, 18] was 0.8484 and the Difference [2, 7] was −0.22.
In the case of `COc1ccc([C@@H]2CC(=O)c3c(O)cc(O[C@@H]4O[C@H](CO[C@@H]5O[C@@H](C)[C@H](O)[C@@H](O)[C@H]5O)[C@@H](O)[C@H](O)[C@H]4O)cc3O2)cc1O` [Hesperidin], the Difference [1, 14] was −0.08, the Cholesterol-free [1, 21] was 1.106 and the Complete [1, 22] was 1.03. For the same molecule, the “Cholesterol-free media + simvastatin (0.04 μM)” value [2, 23] was 1.822, the “Complete Media” value [2, 22] was 1.671 and the Difference [2, 19] was −0.15.
`CCCCCCOC(=O)CCC(=O)CN` [Hexaminolevulinate (hydrochloride)] was tested, and the Difference [1, 20] was 0.00, the Cholesterol-free [1, 8] was 0.7384 and the Complete [1, 9] was 0.7376. The “Cholesterol-free media + simvastatin (0.04 μM)” value [2, 17] was 1.074, the “Complete Media” value [2, 18] was 0.8971 and the Difference [2, 7] was −0.18.
`CCCCCCc1ccc(O)cc1O` [Hexylresorcinol] showed a Difference [1, 20] of 0.00, a Cholesterol-free [1, 8] of 1.034 and a Complete [1, 9] of 1.036. The “Cholesterol-free media + simvastatin (0.04 μM)” value [2, 17] was 1.514, the “Complete Media” value [2, 18] was 1.344 and the Difference [2, 7] was −0.17.
`C[C@@H]1[C@@H](c2ccc(Cl)cc2)SC(=O)N1C(=O)NC1CCCCC1` [Hexythiazox] gave a Difference [1, 14] of −0.16, a Cholesterol-free [1, 21] of 1.557 and a Complete [1, 22] of 1.396. The “Cholesterol-free media + simvastatin (0.04 μM)” value ([2]; NCI-H292 cells, cholesterol-free media with simvastatin 0.04 μM, […]) was 0.8643, the “Complete Media” value ([2]; NCI-H292 cells, complete media, […]) was 0.9913 and the Difference ([2]; complete media minus cholesterol-free media + simvastatin, […]) was 0.13.
Molecule `Cl.Cl.NCCc1c[nH]cn1` [Histamine (dihydrochloride)] has a Cholesterol-free [1] of 1.708, a Complete [1] of 1.081 and a Difference [1] of −0.63. The “Cholesterol-free media + simvastatin (0.04 μM)” value [2] was 0.9209, the “Complete Media” value [2] was 0.9238 and the Difference [2] was 0.00.
`NCCc1c[nH]cn1.O=P(O)(O)O` [Histamine (phosphate)] showed a Difference [1, 20] of −0.23, a Cholesterol-free [1, 3] of 1.032 and a Complete ([1]; NCI-H292 cells, complete media) of 0.8034. For the same molecule, the “Cholesterol-free media + simvastatin (0.04 μM)” value [2, 15] was 1.025, the “Complete Media” value [2, 16] was 1.021 and the Difference [2, 24] was 0.00.
With `NCCc1c[nH]cn1` [Histamine] the Difference [1, 20] was 0.05, the Cholesterol-free [1, 8] was 0.9318 and the Complete [1, 9] was 0.9813. The “Cholesterol-free media + simvastatin (0.04 μM)” value [2, 23] was 1.15, the “Complete Media” value [2, 22] was 1.573 and the Difference [2, 13] was 0.42.
With `C[N+]1(C)[C@@H]2CC[C@H]1C[C@@H](OC(=O)C(O)c1ccccc1)C2.[Br-]` (some centres unmarked) [Homatropine (methylbromide)] the Difference [1, 14] was −0.22, the Cholesterol-free [1, 3] was 1.269 and the Complete ([1]; NCI-H292 cells, complete media) was 1.05. For the same molecule, the “Cholesterol-free media + simvastatin (0.04 μM)” value [2, 5] was 1.302, the “Complete Media” value [2, 6] was 0.9164 and the Difference [2, 19] was −0.39.
With `COC(=O)C[C@](O)(CCCC(C)(C)O)C(=O)O[C@@H]1C(OC)=C[C@]23CCCN2CCc2cc4c(cc2[C@H]13)OCO4` [Homoharringtonine] the Difference [1, 20] was −0.02, the Cholesterol-free [1, 8] was −0.02013 and the Complete [1, 9] was −0.04264. The “Cholesterol-free media + simvastatin (0.04 μM)” value [2, 15] was 0.0331, the “Complete Media” value [2, 16] was 0.0063 and the Difference [2, 24] was −0.03.
With `CC1CC(OC(=O)c2ccccc2O)CC(C)(C)C1` (centres unmarked) [Homosalate] the Cholesterol-free [1, 3] was 0.9096, the Complete ([1]; NCI-H292 cells, complete media) was 0.5831 and the Difference [1, 4] was −0.33. For the same molecule, the “Cholesterol-free media + simvastatin (0.04 μM)” value [2, 11] was 1.411, the “Complete Media” value [2, 12] was 1.442 and the Difference [2, 13] was 0.03.
Molecule `NNc1nncc2ccccc12` [Hydralazine (hydrochloride)] has a Cholesterol-free [1, 3] of 1.529, a Complete ([1]; NCI-H292 cells, complete media) of 1.081 and a Difference [1, 4] of −0.45. For the same molecule, the “Cholesterol-free media + simvastatin (0.04 μM)” value [2, 11] was 1.049, the “Complete Media” value [2, 12] was 1.113 and the Difference [2, 13] was 0.06.
`CCCC(=O)O[C@]1(C(=O)CO)CC[C@H]2[C@@H]3CCC4=CC(=O)CC[C@]4(C)[C@H]3[C@@H](O)C[C@@]21C` [Hydrocortisone 17-butyrate] gave a Difference [1, 20] of −0.03, a Cholesterol-free [1, 8] of 1.162 and a Complete [1, 9] of 1.133. For the same molecule, the “Cholesterol-free media + simvastatin (0.04 μM)” value [2, 23] was 0.4747, the “Complete Media” value [2, 22] was 0.6696 and the Difference [2, 13] was 0.19.
For `CC(=O)OCC(=O)[C@@]1(O)CC[C@H]2[C@@H]3CCC4=CC(=O)CC[C@]4(C)[C@H]3[C@@H](O)C[C@@]21C` [Hydrocortisone acetate], the Difference [1, 20] was −0.20, the Cholesterol-free [1, 3] was 0.8261 and the Complete ([1]; NCI-H292 cells, complete media) was 0.6264. The “Cholesterol-free media + simvastatin (0.04 μM)” value [2, 23] was 0.7827, the “Complete Media” value [2, 22] was 0.63 and the Difference [2, 7] was −0.15.
With `CCCC(=O)O[C@]1(C(=O)COC(=O)CC)CC[C@H]2[C@@H]3CCC4=CC(=O)CC[C@]4(C)[C@H]3[C@@H](O)C[C@@]21C` [Hydrocortisone buteprate] the Difference ([1]; Complete minus Cholesterol-free, greater than 0 enhanced anti-cancer activity, about 0 neutral, below 0 antagonist) was −0.17, the Cholesterol-free [1, 21] was 0.8122 and the Complete [1, 22] was 0.6382. The “Cholesterol-free media + simvastatin (0.04 μM)” value [2, 11] was 0.6107, the “Complete Media” value [2, 12] was 0.6538 and the Difference [2, 13] was 0.04.
With `C[C@]12CCC(=O)C=C1CC[C@@H]1[C@@H]2[C@@H](O)C[C@@]2(C)[C@H]1CC[C@]2(O)C(=O)COC(=O)CCC1CCCC1` [Hydrocortisone cypionate] the Cholesterol-free [1] was 1.099, the Complete [1] was 0.6914 and the Difference [1] was −0.41. For the same molecule, the “Cholesterol-free media + simvastatin (0.04 μM)” value [2] was 0.7228, the “Complete Media” value [2] was 0.7215 and the Difference [2] was 0.00.
Work on `C[C@]12CCC(=O)C=C1CC[C@@H]1[C@@H]2[C@@H](O)C[C@@]2(C)[C@H]1CC[C@]2(O)C(=O)CO` [Hydrocortisone] yielded a Cholesterol-free [1, 8] of 0.8914, a Complete [1, 9] of 1.03 and a Difference [1, 10] of 0.14. The “Cholesterol-free media + simvastatin (0.04 μM)” value [2, 11] was 0.4287, the “Complete Media” value [2, 12] was 0.4959 and the Difference [2, 13] was 0.07.
Work on `CC[C@H]1CN2CC[C@H]1C[C@@H]2[C@@H](O)c1ccnc2ccc(OC)cc12` [Hydroquinidine] yielded a Difference [1, 20] of 0.06, a Cholesterol-free [1, 8] of 0.8191 and a Complete [1, 9] of 0.8815. For the same molecule, the “Cholesterol-free media + simvastatin (0.04 μM)” value [2, 5] was 1.791, the “Complete Media” value [2, 6] was 1.518 and the Difference [2, 7] was −0.27.
For `CCN(CCO)CCCC(C)Nc1ccnc2cc(Cl)ccc12` (centres unmarked) [Hydroxychloroquine sulfate], the Difference ([1]; Complete minus Cholesterol-free, greater than 0 enhanced anti-cancer activity, about 0 neutral, below 0 antagonists) was −0.72, the Complete ([1]; NCI-H292 cells in complete media) was 0.895 and the “Cholesterol-free media + simvastatin (0.04 μM)” value [2, 11] was 0.9769. The “Complete Media” value [2, 12] was 1.024 and the Difference [2, 13] was 0.05.
